Source: patent publication US7396837B2, “Antitumoral analogs of lamellarins” (Pharma Mar, S.A.U., priority 2002, dated 2008)
Like-named read-outs stand apart in the source and are kept apart here.

How the values were obtained:
Type in all cases: cell-based
[1] = tested on: LoVo; experiment: SRB colorimetric cell growth inhibition assay, LoVo; details: for GI50: GI=growth inhibition, read-out: GI50 LOVO; for CC50: cell killing (cytotoxic effect), read-out: LC50 LOVO; for IC (TGI): total growth inhibition (cytostatic effect), read-out: TGI LOVO
In short: (§1)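 In this cytotoxicity screen, compound stays in contact with the cultured human cancer cells without washout; sulforhodamine B binding gives the measure of cell number, and endpoints separate growth inhibition from cytostasis (TGI) and killing (LC).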

[2] = tested on: LNCaP; experiment: SRB colorimetric cell growth inhibition assay, LNCaP; details: Homo sapiens, LNCaP, LN-caP; for GI50: GI=growth inhibition, read-out: GI50 LN-caP; for CC50: cell killing (cytotoxic effect), read-out: LC50 LN-caP; for IC (TGI): total growth inhibition (cytostatic effect), read-out: TGI LN-caP
In short: as §1

[3] = tested on: PANC-1; experiment: SRB colorimetric cell growth inhibition assay, PANC-1; details: for CC50: Homo sapiens, PANC-1, PANC-1, cell killing (cytotoxic effect), read-out: LC50 PANC-1; for GI50 / TGI PANC-1: PANC-1; for GI50: GI=growth inhibition, read-out: GI50 PANC-1; for TGI PANC-1: total growth inhibition (cytostatic effect)
In short: as §1

[4] = tested on: H-MEC-1; experiment: SRB colorimetric cell growth inhibition assay, H-MEC-1; details: Homo sapiens, HMEC-1, H-MEC-1; for GI50: GI=growth inhibition, read-out: GI50 H-MEC-1; for IC (TGI): total growth inhibition (cytostatic effect), read-out: TGI H-MEC-1
Source text: (§2) A colorimetric type of assay, using sulforhodamine B (SRB) reaction has been adapted for a quantitative measurement of cell growth and viability (following the technique described by P. A. Skehan, et al., J. Natl. Cancer Inst. 1990, 82, 1107-1112).
(§3) This form of assay employs 96 well cell culture microplates of 9 mm diameter (T. Mosmann et al., J. of Immunological Methods 1983, 65, 55-63; G. T. Faircloth et al., J. of Tissue and Culture Methods 1988, 11, 201-205).
(§4) Most of the cell lines are obtained from American Type Culture Collection (ATCC) derived from different human cancer types.
(§5) The values for mean +/− SD of data from triplicate wells are calculated. Some parameters for cellular responses can be calculated: GI=growth inhibition, TGI=total growth inhibition (cytostatic effect) and LC=cell killing (cytotoxic effect).

[5] = as above; details: human, H-MEC-1, cell killing (cytotoxic effect), read-out: LC50 H-MEC-1
Source text: as §2, §3, §4, §5

[6] = tested on: LoVo-Dox; experiment: SRB colorimetric cell growth inhibition assay, LoVo-Dox (MDR); details: Homo sapiens, LOVO-DOX; for GI50: GI=growth inhibition, read-out: GI50 LOVO-DOX; for CC50: cell killing (cytotoxic effect), read-out: LC50 LOVO-DOX; for IC (TGI): total growth inhibition (cytostatic effect), read-out: TGI LOVO-DOX
In short: as §1

[7] = tested on: HT-29; experiment: SRB colorimetric cell growth inhibition assay, HT-29; details: for GI50: GI=growth inhibition, read-out: GI50 HT-29; for CC50: cell killing (cytotoxic effect), read-out: LC50 HT-29
In short: as §1

[8] = tested on: SK-BR-3; experiment: SRB colorimetric cell growth inhibition assay, SK-BR-3; details: for CC50: Homo sapiens, SK-BR-3, SK-BR-3, cell killing (cytotoxic effect), read-out: LC50 SK-BR-3; for GI50 / TGI SK-BR-3: SK-BR-3; for GI50: GI=growth inhibition, read-out: GI50 SK-BR-3; for TGI SK-BR-3: total growth inhibition (cytostatic effect)
In short: as §1

[9] = tested on: DU-145; experiment: SRB colorimetric cell growth inhibition assay, DU-145; details: for GI50: GI=growth inhibition, read-out: GI50 DU-145; for CC50: cell killing (cytotoxic effect), read-out: LC50 DU-145
In short: as §1

[10] = tested on: IGROV-ET; experiment: SRB colorimetric cell growth inhibition assay, IGROV-ET (ET-743 resistant); details: IGROV-ET; for CC50: cell killing (cytotoxic effect), read-out: LC50 IGROV-ET; for IC (TGI): total growth inhibition (cytostatic effect), read-out: TGI IGROV-ET; for GI50: GI=growth inhibition, read-out: GI50 IGROV-ET
In short: as §1

[11] = tested on: SK-MEL-28; experiment: SRB colorimetric cell growth inhibition assay, SK-MEL-28; details: MEL-28; for GI50: GI=growth inhibition, read-out: GI50 MEL-28; for CC50: cell killing (cytotoxic effect), read-out: LC50 MEL-28; for TGI MEL-28: total growth inhibition (cytostatic effect)
In short: as §1

[12] = tested on: SKOV-3; experiment: SRB colorimetric cell growth inhibition assay, SKOV-3; details: Homo sapiens; for GI50: SK-OV-3, SKOV-3, GI=growth inhibition, read-out: GI50 SKOV-3; for LC50 (concentration causing 50% net cell killing) / IC (TGI): SK-OV-3, SKOV-3; for LC50 (concentration causing 50% net cell killing): cell killing (cytotoxic effect), read-out: LC50 SKOV-3; for IC (TGI): total growth inhibition (cytostatic effect), read-out: TGI SKOV-3
Source text: as §2, §3, §4, §5

[13] = tested on: IGROV; experiment: SRB colorimetric cell growth inhibition assay, IGROV; details: IGROV; for CC50: cell killing (cytotoxic effect), read-out: LC50 IGROV; for IC (TGI): total growth inhibition (cytostatic effect), read-out: TGI IGROV; for GI50: GI=growth inhibition, read-out: GI50 IGROV
In short: as §1

[14] = tested on: A-549; experiment: SRB colorimetric cell growth inhibition assay, A-549; details: for GI50: GI=growth inhibition, read-out: GI50 A-549; for CC50: cell killing (cytotoxic effect), read-out: LC50 A-549
In short: as §1

[15] = tested on: K-562; experiment: SRB colorimetric cell growth inhibition assay, K-562; details: Homo sapiens, K562, K-562; for GI50: GI=growth inhibition, read-out: GI50 K-562; for CC50: cell killing (cytotoxic effect), read-out: LC50 K-562; for IC (TGI): total growth inhibition (cytostatic effect), read-out: TGI K-562
In short: as §1

COc1cc2ccn3c(c(-c4ccc(OC(=O)[C@@H](N)Cc5ccccc5)c(OC)c4)c4c5cc(OC)c(OC(=O)[C@@H](N)Cc6ccccc6)cc5oc(=O)c43)c2cc1OC [Compound 18] showed a GI50 ([1]; Homo sapiens, LoVo) of 664 nM, a CC50 ([1]; Homo sapiens, LoVo) of 12.3 µM and an IC (TGI) ([1]; Homo sapiens, LoVo) of 2.37 µM. It also gave a GI50 [2] of 359 nM, a CC50 [2] of 4.27 µM and an IC (TGI) [2] of 1.27 µM. For the same compound, the CC50 [3] was 12.3 µM, the GI50 [3] was 992 nM and the “TGI PANC-1” value [3] was 3.70E−06 Molar. For the same compound, the GI50 [4] was 494 nM, the IC (TGI) [4] was 0.846 µM and the LC50 (concentration giving 50% net cell killing) [5] was 2.93 µM. It also gave a GI50 [6] of 1080 nM, a CC50 [6] of 12.1 µM and an IC (TGI) [6] of 3.67 µM. The GI50 ([7]; HT-29) was 819 nM, the CC50 ([7]; Homo sapiens, HT-29, HT-29) was 12.3 µM and the IC (TGI) ([7]; Homo sapiens, HT-29, HT-29, total growth inhibition (cytostatic effect), read-out: TGI HT-29) was 4.54 µM. For the same compound, the CC50 [8] was 10.5 µM, the GI50 [8] was 458 nM and the “TGI SK-BR-3” value [8] was 2.14E−06 Molar. For the same compound, the GI50 ([9]; DU-145) was 505 nM, the “TGI DU-145” value ([9]; DU-145, total growth inhibition (cytostatic effect)) was 1.41E−06 Molar and the CC50 ([9]; Homo sapiens, DU-145, DU-145) was 7.04 µM. The CC50 ([10]; Homo sapiens) was 12.3 µM, the IC (TGI) ([10]; Homo sapiens) was 5.14 µM and the GI50 [10] was 2000 nM. For the same compound, the GI50 [11] was 524 nM, the CC50 [11] was 4.43 µM and the “TGI MEL-28” value [11] was 1.44E−06 Molar. The GI50 [12] was 1220 nM, the LC50 (concentration causing 50% net cell killing) [12] was 6.51 µM and the IC (TGI) [12] was 2.82 µM. The CC50 ([13]; Homo sapiens) was 7.91 µM, the IC (TGI) ([13]; Homo sapiens) was 3.21 µM and the GI50 [13] was 1310 nM. For the same compound, the GI50 ([14]; Homo sapiens, A549, A-549) was 1610 nM, the CC50 ([14]; Homo sapiens, A549, A-549) was 9.99 µM and the IC (TGI) ([14]; Homo sapiens, A549, A-549, total growth inhibition (cytostatic effect), read-out: TGI A-549) was 4 µM. For the same compound, the GI50 [15] was 558 nM, the CC50 [15] was 8.64 µM and the IC (TGI) [15] was 1.51 µM.

Work on COc1cc2ccn3c(c(-c4ccc(OC(=O)[C@@H](N)C(C)C)c(OC)c4)c4c5cc(OC)c(OC(=O)[C@@H](N)C(C)C)cc5oc(=O)c43)c2cc1OC [Compound 19] yielded a GI50 ([1]; Homo sapiens, LoVo) of 722 nM, an IC (TGI) ([1]; Homo sapiens, LoVo) of 2.33 µM and a CC50 ([1]; LOVO) of 6.6 µM. The GI50 [2] was 94.1 nM, the CC50 [2] was 5.37 µM and the IC (TGI) [2] was 1.41 µM. The CC50 [3] was 9.5 µM, the GI50 [3] was 245 nM and the “TGI PANC-1” value [3] was 2.42E−06 Molar. It also gave a GI50 [4] of 807 nM, an IC (TGI) [4] of 2.42 µM and an LC50 (concentration giving 50% net cell killing) ([5]; H-MEC-1 cells) of 7.16 µM. It also gave a GI50 [6] of 874 nM, a CC50 [6] of 8.03 µM and an IC (TGI) [6] of 2.72 µM. For the same compound, the GI50 ([7]; HT-29) was 109 nM, the “TGI HT-29” value ([7]; HT-29, total growth inhibition (cytostatic effect)) was 2.10E−06 Molar and the CC50 ([7]; Homo sapiens, HT-29, HT-29) was 7.29 µM. For the same compound, the CC50 [8] was 14 µM, the GI50 [8] was 165 nM and the “TGI SK-BR-3” value [8] was 2.28E−06 Molar. It also gave a CC50 ([9]; DU-145) of 6.85 µM, a GI50 ([9]; Homo sapiens, DU-145, DU-145) of 532 nM and an IC (TGI) ([9]; Homo sapiens, DU-145, DU-145, total growth inhibition (cytostatic effect), read-out: TGI DU-145) of 2.16 µM. It also gave a GI50 ([10]; Homo sapiens) of 761 nM, a CC50 ([10]; Homo sapiens) of 11.3 µM and an IC (TGI) ([10]; Homo sapiens) of 2.54 µM. The GI50 [11] was 273 nM, the CC50 [11] was 4.99 µM and the “TGI MEL-28” value [11] was 1.53E−06 Molar. For the same compound, the GI50 [12] was 758 nM, the LC50 (concentration causing 50% net cell killing) [12] was 6.57 µM and the IC (TGI) [12] was 2.31 µM. The GI50 ([13]; Homo sapiens) was 406 nM, the CC50 ([13]; Homo sapiens) was 9.34 µM and the IC (TGI) ([13]; Homo sapiens) was 2.51 µM. The CC50 ([14]; A-549) was 6.32 µM, the “TGI A-549” value ([14]; A-549, total growth inhibition (cytostatic effect)) was 2.13E−06 Molar and the GI50 ([14]; Homo sapiens, A549, A-549) was 605 nM. For the same compound, the GI50 [15] was 1840 nM, the CC50 [15] was 11.6 µM and the IC (TGI) [15] was 4.62 µM.
